Drawing on patent US12503438B2, “Compounds for the treatment of kinase-dependent disorders” (Exelixis, Inc., priority 2019, dated 2025), this text covers IC50 for 22 compounds.

pIC50: −log10 of the molar value.

The target of the test is T1, Mer (Homo sapiens, UniProt Q12866).
T1 construct: host or cells: 293A cells (Thermo Fisher #R70507)
T1 sequence (Q12866 21-999): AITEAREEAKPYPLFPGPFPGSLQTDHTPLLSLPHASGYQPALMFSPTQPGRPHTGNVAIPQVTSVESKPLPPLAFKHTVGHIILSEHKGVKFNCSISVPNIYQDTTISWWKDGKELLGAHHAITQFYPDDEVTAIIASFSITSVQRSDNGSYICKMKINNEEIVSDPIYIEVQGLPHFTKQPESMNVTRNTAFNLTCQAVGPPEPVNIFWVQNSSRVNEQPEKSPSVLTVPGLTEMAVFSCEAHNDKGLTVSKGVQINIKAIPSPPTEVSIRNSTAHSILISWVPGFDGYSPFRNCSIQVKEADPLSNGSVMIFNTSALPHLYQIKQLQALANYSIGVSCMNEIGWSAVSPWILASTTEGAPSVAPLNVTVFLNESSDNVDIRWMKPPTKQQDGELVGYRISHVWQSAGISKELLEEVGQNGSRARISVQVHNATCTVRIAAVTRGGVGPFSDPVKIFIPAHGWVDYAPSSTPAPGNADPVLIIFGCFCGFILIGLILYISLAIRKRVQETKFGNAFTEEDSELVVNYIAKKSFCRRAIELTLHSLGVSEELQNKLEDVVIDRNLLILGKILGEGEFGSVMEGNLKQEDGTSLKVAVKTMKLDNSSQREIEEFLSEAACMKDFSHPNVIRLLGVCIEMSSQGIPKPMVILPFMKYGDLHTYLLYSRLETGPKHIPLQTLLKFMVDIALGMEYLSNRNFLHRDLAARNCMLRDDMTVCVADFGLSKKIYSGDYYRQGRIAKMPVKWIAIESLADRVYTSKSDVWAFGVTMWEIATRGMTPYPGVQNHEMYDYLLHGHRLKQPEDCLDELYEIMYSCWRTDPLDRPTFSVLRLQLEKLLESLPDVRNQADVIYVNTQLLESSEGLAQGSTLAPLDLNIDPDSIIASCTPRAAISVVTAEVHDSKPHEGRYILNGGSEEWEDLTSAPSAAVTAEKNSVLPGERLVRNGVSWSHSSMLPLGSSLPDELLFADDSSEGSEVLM
Kind of test: Mer autophosphorylation ELISA in transient transfected 293A cells. The format is cell-based. Particulars: cellular activity; MERTK-transfected 293A cells, phospho-Mer ELISA. As to the method:
293A cells (Thermo Fisher #R70507) were seeded at 1.5×10^6 cells/well onto 100 mm dish (Greiner #664169), in DMEM (Thermo Fisher #11995-040) containing 10% FBS (Thermo Fisher #26140-079), 1% MEM NEAA (Thermo Fisher #11140-050), 1% GlutaMax (Thermo Fisher #35050-061), and 1% Penicillin Streptomycin (Thermo Fisher #15140-122). 293A cells were incubated at 37° C., 5% CO2 for 24 h and then transfected with 6 μg MERTK DNA (Genecopoeia #EX-Z8208-M02) using TransIT LT1 transfection reagent (Mirus-Bio #MIR2305). After 24 h incubation, the transfected 293A cells were seeded at 1×10^5 cells/well onto 96-well plates (Corning #3904) in DMEM growth medium overnight. Test compounds were serially diluted to produce an 8-point dose curve in fresh serum-free medium to a final concentration of 0.3% DMSO (vehicle) and added to the cells and incubated for 1 h. Cells were then immediately lysed with 150 μL of cold 1× lysis buffer [20 mM Tris, 137 mM sodium chloride, 2 mM EDTA, 10% glycerol, 1% NP-40 alternative, 1 mM activated sodium orthovanadate, 1 mM PefaBloc SC (Sigma-Aldrich #11429868001), protease/phosphatase inhibitor tablet (Thermo Fisher #A32959)]. Lysates were clarified by centrifugation and 50 μL/well added into the human phospho-Mer DuoSet IC ELISA (R&D Systems #DYC2579-2). Assay was performed according to manufacturer's instructions and sample phospho-Mer concentrations were extrapolated using human phospho-Mer control (R&D Systems #841793) as a standard. Positive control wells (100% activity) contained DMSO-treated cell lysates. Negative control wells (0% activity) contained reference inhibitor-treated cell lysates. IC50 values were calculated by nonlinear regression analysis using a 4-parameter logistic curve fit in ActivityBase XE (IDBS).
As usually defined, the pIC50 is the negative decadic logarithm of the IC50, by convention in mol/L. Low readings indicate a large IC50, high ones a small IC50. Regarding `Cn1ccc(-c2ccc3c(Oc4ccc(NC(=O)C5(C(=O)Nc6ccc(F)cc6)CC5)cc4)ccnc3c2)n1` [Compound 17, 1-N′-(4-Fluorophenyl)-1-N-[4-[7-(1-methylpyrazol-3-yl)quinolin-4-yl]oxyphenyl]cyclopropane-1,1-dicarboxamide], the pIC50 was 7.00 to 8.00.

In turn, `O=C(Nc1ccc(F)cc1)C1(C(=O)Nc2ccc(Oc3ccnc4cc(-c5cnn(C(F)F)c5)ccc34)cc2)CC1` [Compound 13, 1-N-[4-[7-[1-(Difluoromethyl)pyrazol-4-yl]quinolin-4-yl]oxyphenyl]-1-N′-(4-fluorophenyl)cyclopropane-1,1-dicarboxamide] gave a pIC50 of 7.00 to 8.00.

On to `O=C(Nc1ccc(F)cc1)C1(C(=O)Nc2ccc(Oc3ccnc4cc(-c5ccnnc5)ccc34)cc2)CC1` [Compound 28, 1-N′-(4-Fluorophenyl)-1-N-[4-(7-pyridazin-4-ylquinolin-4-yl)oxyphenyl]cyclopropane-1,1-dicarboxamide], for which the pIC50 is 7.00 to 8.00.

`Cn1cc(-c2ccc3c(Oc4ccc(NC(=O)C5(C(=O)Nc6ccc(F)cc6)CC5)cc4)ccnc3c2)cn1` [Compound 11, 1-N′-(4-Fluorophenyl)-1-N-[4-[7-(1-methylpyrazol-4-yl)quinolin-4-yl]oxyphenyl]cyclopropane-1,1-dicarboxamide] gave a pIC50 not below 8.00.

The compound `O=C(Nc1ccc(F)cc1)C1(C(=O)Nc2ccc(Oc3ccnc4cc(-c5cnn(CCO)c5)ccc34)cc2)CC1` [Compound 18, 1-N′-(4-Fluorophenyl)-1-N-[4-[7-[1-(2-hydroxyethyl)pyrazol-4-yl]quinolin-4-yl]oxyphenyl]cyclopropane-1,1-dicarboxamide] gave a pIC50 not below 8.00.

On to `O=C(Nc1ccc(F)cc1)C1(C(=O)Nc2ccc(Oc3ccnc4cc(-c5cnn(C(F)(F)F)c5)ccc34)cc2)CC1` [Compound 12, 1-N′-(4-Fluorophenyl)-1-N-[4-[7-[1-(trifluoromethyl)pyrazol-4-yl]quinolin-4-yl]oxyphenyl]cyclopropane-1,1-dicarboxamide], for which the pIC50 was 6.52 to 7.00.

Regarding `CCn1cc(-c2ccc3c(Oc4ccc(NC(=O)C5(C(=O)Nc6ccc(F)cc6)CC5)cc4)ccnc3c2)cn1` [Compound 20, 1-N-[4-[7-(1-Ethylpyrazol-4-yl)quinolin-4-yl]oxyphenyl]-1-N′-(4-fluorophenyl)cyclopropane-1,1-dicarboxamide], the pIC50 was not below 8.00.

Compound `Cc1cc(F)cc(C)c1NC(=O)C1(C(=O)Nc2ccc(Oc3ccnc4cc(-c5cnn(C)c5)ccc34)cc2)CC1` [Compound 82, 1-N′-(4-Fluoro-2,6-dimethylphenyl)-1-N-[4-[7-(1-methylpyrazol-4-yl)quinolin-4-yl]oxyphenyl]cyclopropane-1,1-dicarboxamide] had a pIC50 of 7.00 to 8.00.

For `CN1CCN(c2cc(-c3ccc4c(Oc5ccc(NC(=O)C6(C(=O)Nc7ccc(F)cc7)CC6)cc5)ccnc4c3)ccn2)CC1` [Compound 111, 1-N′-(4-Fluorophenyl)-1-N-[4-[7-[2-(4-methylpiperazin-1-yl)pyridin-4-yl]quinolin-4-yl]oxyphenyl]cyclopropane-1,1-dicarboxamide], the pIC50 was 7.00 to 8.00.

For `O=C(Nc1ccc(F)cc1)C1(C(=O)Nc2ccc(Oc3ccnc4cc(-c5cccnc5)ccc34)cc2)CC1` [Compound 25, 1-N′-(4-Fluorophenyl)-1-N-[4-(7-pyridin-3-ylquinolin-4-yl)oxyphenyl]cyclopropane-1,1-dicarboxamide], the pIC50 is 7.00 to 8.00.

`COCCn1cc(-c2ccc3c(Oc4ccc(NC(=O)C5(C(=O)Nc6ccc(F)cc6)CC5)cc4)ccnc3c2)cn1` [Compound 10, 1-N′-(4-Fluorophenyl)-1-N-[4-[7-[1-(2-methoxyethyl)pyrazol-4-yl]quinolin-4-yl]oxyphenyl]cyclopropane-1,1-dicarboxamide] gave a pIC50 not below 8.00.

Compound `CNC(=O)c1cc2c(Oc3ccc(NC(=O)C4(C(=O)Nc5ccc(F)cc5)CC4)cc3)ccnc2cc1-c1cnn(C)c1` [Compound 77, 1-N′-(4-Fluorophenyl)-1-N-[4-[6-(methylcarbamoyl)-7-(1-methylpyrazol-4-yl)quinolin-4-yl]oxyphenyl]cyclopropane-1,1-dicarboxamide] gave a pIC50 of 7.00 to 8.00.

As to `CC(C)(C)n1cc(-c2ccc3c(Oc4ccc(NC(=O)C5(C(=O)Nc6ccc(F)cc6)CC5)cc4)ccnc3c2)cn1` [Compound 23, 1-N-[4-[7-(1-tert-Butylpyrazol-4-yl)quinolin-4-yl]oxyphenyl]-1-N′-(4-fluorophenyl)cyclopropane-1,1-dicarboxamide], the negative logarithm of the IC50 (pIC50) is 7.00 to 8.00.

Take `CC(C)Oc1ccc(-c2ccc3c(Oc4ccc(NC(=O)C5(C(=O)Nc6ccc(F)cc6)CC5)cc4)ccnc3c2)cn1` [Compound 50, 1-N′-(4-Fluorophenyl)-1-N-[4-[7-(6-propan-2-yloxypyridin-3-yl)quinolin-4-yl]oxyphenyl]cyclopropane-1,1-dicarboxamide]: the pIC50 is 6.52 to 7.00.

`O=C(Nc1ccc(F)cc1)C1(C(=O)Nc2ccc(Oc3ccnc4cc(-c5ccncc5)ccc34)cc2)CC1` [Compound 26, 1-N′-(4-Fluorophenyl)-1-N-[4-(7-pyridin-4-ylquinolin-4-yl)oxyphenyl]cyclopropane-1,1-dicarboxamide] showed a pIC50 of 7.00 to 8.00.

Compound `O=C(Nc1ccc(F)cc1)C1(C(=O)Nc2ccc(Oc3ccnc4cc(-c5cnc6[nH]ncc6c5)ccc34)cc2)CC1` [Compound 39, 1-N′-(4-Fluorophenyl)-1-N-[4-[7-(1H-pyrazolo[3,4-b]pyridin-5-yl)quinolin-4-yl]oxyphenyl]cyclopropane-1,1-dicarboxamide] had a pIC50 of 7.00 to 8.00.

In the case of `O=C(Nc1ccc(F)cc1)C1(C(=O)Nc2ccc(Oc3ccnc4cc(-c5ccn[nH]5)ccc34)cc2)CC1` [Compound 68, 1-N′-(4-Fluorophenyl)-1-N-[4-[7-(1H-pyrazol-5-yl)quinolin-4-yl]oxyphenyl]cyclopropane-1,1-dicarboxamide], the pIC50 was 7.00 to 8.00.

As for `O=C(Nc1ccc(F)cc1)C1(C(=O)Nc2ccc(Oc3ccnc4cc(-c5ncc[nH]5)ccc34)cc2)CC1` [Compound 74, 1-N′-(4-Fluorophenyl)-1-N-[4-[7-(1H-imidazol-2-yl)quinolin-4-yl]oxyphenyl]cyclopropane-1,1-dicarboxamide], the pIC50 was 7.00 to 8.00.

For the compound `N#Cc1cc(-c2ccc3c(Oc4ccc(NC(=O)C5(C(=O)Nc6ccc(F)cc6)CC5)cc4)ccnc3c2)ccn1` [Compound 34, 1-N-[4-[7-(2-Cyanopyridin-4-yl)quinolin-4-yl]oxyphenyl]-1-N′-(4-fluorophenyl)cyclopropane-1,1-dicarboxamide], the pIC50 was 7.00 to 8.00.

The compound `O=C(Nc1ccc(F)cc1)C1(C(=O)Nc2ccc(Oc3ccnc4cc(-c5cnn(C6CC6)c5)ccc34)cc2)CC1` [Compound 22, 1-N-[4-[7-(1-Cyclopropylpyrazol-4-yl)quinolin-4-yl]oxyphenyl]-1-N′-(4-fluorophenyl)cyclopropane-1,1-dicarboxamide] gave a pIC50 not below 8.00.

In turn, `O=C(Nc1ccc(F)cc1)C1(C(=O)Nc2ccc(Oc3ccnc4cc(-c5cncnc5)ccc34)cc2)CC1` [Compound 27, 1-N′-(4-Fluorophenyl)-1-N-[4-(7-pyrimidin-5-ylquinolin-4-yl)oxyphenyl]cyclopropane-1,1-dicarboxamide] had a pIC50 of 7.00 to 8.00.

On to `Cc1cc2c(Oc3ccc(NC(=O)C4(C(=O)Nc5ccc(F)cc5)CC4)cc3)ccnc2cc1-c1ncc[nH]1` [Compound 120, 1-N′-(4-Fluorophenyl)-1-N-[4-[7-(1H-imidazol-2-yl)-6-methylquinolin-4-yl]oxyphenyl]cyclopropane-1,1-dicarboxamide], for which the pIC50 is 7.00 to 8.00.
